Reference: patent US20230099441A1, “HETEROCYCLIC COMPOUND, APPLICATION THEREOF, AND COMPOSITION CONTAINING SAME” (GenEros Biopharma Ltd., priority 2019, published 2023)

Columns and labels:
[1] = test system: STAT5 Y694 phosphorylation; experiment: HTRF experiment: STAT5 Y694 phosphorylation in Hela cells stimulated with human interferon beta; assay type: cell-based; details: 2 hours pretreatment, 10 nM human interferon beta 30 minutes
Protocol: Example of Effect 3: HTRF Experiment
Human Interferon 3 (IFN-0) (GenScript, Cat #P01574), STAT5 Y694 phosphorylation detection kit (STAT5 phospho-Y694 kit) (Cisbio; Cat #64AT5PEG).
Hela cells (ATCC American Standard Culture Center, CCL-2) were cultured in a 96-well plate at a density of 3×10^4 cells/well with DMEM medium containing 5% fetal bovine serum and maintained at 37° C. in a humidified incubator with 5% carbon dioxide overnight. On the second day, the original DMEM medium in the 96-well plate was sucked dry, and an equal volume of medium containing different concentrations of compounds (the mother liquor of the compound prepared by dimethyl sulfoxide was diluted in the medium at the required concentration) was added for pretreatment for 2 hours, and then it was placed in an incubator at 37° C. Then human interferon beta with a final concentration of 10 nM was added to stimulate, and it was gently shaken to mix well and then placed in an incubator at 37° C. for 30 minutes.
The medium was removed, an appropriate volume of PBS was added to wash, and then it was sucked dry. Then 40 microliters of 1× Lysis Buffer was added to each well and it was stood for 30 minutes at room temperature (1 ml 1× lysate preparation: 740 μl ddH2O was added to 250 μl 4× lysate and 10 μl Blocking reagent and it was mixed thoroughly). After 30 minutes, the cells were repeatedly blown until the lysis solution was not viscous (avoiding blowing out bubbles) to achieve sufficient lysis.
After overnight incubation, the signals of 665 nm and 620 nm were detected in a multifunctional microplate reader. The calculation formula for the detection of STAT5 Y694 phosphorylation is: Ratio=[(signal 665 nm)/(signal 620 nm)]×10^4. Treatment with dimethyl sulfoxide alone was the baseline control (Ratiobase), and the human interferon β stimulation without addition of the compound was the STAT5 Y694 full phosphorylation activation control (Ratiostimulation), the inhibition rate of STAT5 Y694 phosphorylation of different samples was normalized: Inhibition rate=[1−(RatioExperiment−Ratiobase)/(Ratiostimulation−Ratiobase)]*100.

[2] = test system: STAT5 Y694 phosphorylation; experiment: Protein electrophoresis and blotting of STAT5 Y694 phosphorylation in Jurkat cells stimulated with human interferon beta; assay type: cell-based; details: for Inhibiting Ratio (0% for vehicle control): 1 hour pretreatment, 20 ng/ml human interferon beta 30 minutes, pSTAT5/GAPDH; for Example of Effect 1: Inhibiting Ability (Protein Electrophoresis and Blotting): observed pSTAT5 bands at 10 μM and 100 μM
In short: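 Serum-free Jurkat cells pretreated with compound 1 h, then stimulated with 20 ng/ml human interferon beta for 30 min at 37° C. pSTAT5 measured by western blot with chemiluminescence, normalized to GAPDH and expressed as percent of DMSO control.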

Row | SMILES | Example of Effect 3: Inhibiting Ratio@10 μM (HTRF Experiment) [1] [%] | further results
1 | O=C(Cc1ccc(C(F)(F)F)cc1)N1CCC(n2c(=O)[nH]c3c(C(F)(F)F)cccc32)CC1 [GEN1-001, 4-(trifluoromethyl)-1-(1-(2-(4-(trifluoromethyl)phenyl)acetyl)piperidin-4-yl)-1H-benzo[d]imidazole-2(3H)-one] | 3.75 | Inhibiting Ratio (0% for vehicle control) ([2]; 1 μM): 11.0%; Inhibiting Ratio (0% for vehicle control) ([2]; 10 μM): 29.2%; Inhibiting Ratio (0% for vehicle control) ([2]; 100 μM): 96.8%; Example of Effect 1: Inhibiting Ability (Protein Electrophoresis and Blotting) [2]: +
2 | COc1ccc2[nH]c(=O)n(C3CCN(C(=O)Cc4ccc(C(F)(F)F)cc4)CC3)c2c1 [GEN1-011, 6-methoxy-1-(1-(2-(4-(trifluoromethyl)phenyl)acetyl)piperidin-4-yl)-1H-benzo[d]imidazole-2 (3H)-one] | 20.49 | Example of Effect 1: Inhibiting Ability (Protein Electrophoresis and Blotting) [2]: +
3 | O=C(Cc1ccc(C(F)(F)F)cc1)N1CCC(n2c(=O)[nH]c3cccc(C(F)(F)F)c32)CC1 [GEN1-013, 7-(trifluoromethyl)-1-(1-(2-(4-(trifluoromethyl)phenyl)acetyl)piperidin-4-yl)-1H-benzo[d]imidazole-2(3H)-one] | 20.29 | Inhibiting Ratio (0% for vehicle control) ([2]; 1 μM): 12.4%; Inhibiting Ratio (0% for vehicle control) ([2]; 10 μM): 62.6%; Inhibiting Ratio (0% for vehicle control) ([2]; 100 μM): 97.0%; Example of Effect 1: Inhibiting Ability (Protein Electrophoresis and Blotting) [2]: +
4 | N#Cc1cccc2[nH]c(=O)n(C3CCN(C(=O)Cc4ccc(C(F)(F)F)cc4)CC3)c12 [GEN1-014, 2-oxo-3-(1-(2-(4-(trifluoromethyl)phenyl)acetyl)piperidin-4-yl)-2,3-dihydro-1H-benzo[d]imidazole-4-carbonitrile] | 16.12 | Inhibiting Ratio (0% for vehicle control) ([2]; 1 μM): 14.2%; Inhibiting Ratio (0% for vehicle control) ([2]; 10 μM): 78.8%; Inhibiting Ratio (0% for vehicle control) ([2]; 100 μM): 99.1%; Example of Effect 1: Inhibiting Ability (Protein Electrophoresis and Blotting) [2]: +
5 | O=C(Cc1ccc(C(F)(F)F)cc1)N1CCC(n2c(=O)[nH]c3cccc(O)c32)CC1 [GEN1-016, 7-hydroxy-1-(1-(2-(4-(trifluoromethyl)phenyl)acetyl)piperidin-4-yl)-1H-benzo[d]imidazole-2 (3H)-one] | 9.50 | Example of Effect 1: Inhibiting Ability (Protein Electrophoresis and Blotting) [2]: +
6 | CC(C)(C)c1ccc(CC(=O)N2CCC(n3c(=O)[nH]c4ccccc43)CC2)cc1 [GEN1-031, 1-(1-(2-(4-(tert-butyl)phenyl)acetyl)piperidin-4-yl)-1H-benzo[d]imidazole-2(3H)-one] | 0.13 | Inhibiting Ratio (0% for vehicle control) ([2]; 1 μM): 19.7%; Inhibiting Ratio (0% for vehicle control) ([2]; 10 μM): 38.1%; Inhibiting Ratio (0% for vehicle control) ([2]; 100 μM): 98.7%; Example of Effect 1: Inhibiting Ability (Protein Electrophoresis and Blotting) [2]: +
7 | O=C(Cc1ccc(C(F)(F)F)cc1)N1CCC2(CC1)C(=O)NCN2c1ccccc1 [GEN1-049, 1-phenyl-8-(2-(4-(trifluoromethyl)phenyl)acetyl)-1,3,8triazaspiro[4.5]decane-4-one] | 18.33 | Example of Effect 1: Inhibiting Ability (Protein Electrophoresis and Blotting) [2]: −
8 | O=C(Cc1ccc(C(F)(F)F)cc1)N1CCC(n2c(=S)[nH]c3ccccc32)CC1 [GEN1-050, 1-(4-(2-thioxo-2,3-dihydro-1H-benzo[d]imidazol-1-yl)piperidin-1-yl)-2-(4-(trifluoromethyl)phenyl)ethanone] | 15.28 | Example of Effect 1: Inhibiting Ability (Protein Electrophoresis and Blotting) [2]: +
9 | O=C1CN(C2CCN(C(=O)Cc3ccc(C(F)(F)F)cc3)CC2)c2ccc(C(F)(F)F)cc2N1 [GEN1-135, 7-(trifluoromethyl)-4-(1-(2-(4-(trifluoromethyl)phenyl)acetyl)piperidin-4-yl)-3,4-dihydroquinoxaline-2(1H)-one] | 22.91 | 
10 | O=C(Cc1ccc(C(F)(F)F)cc1)N1CCC(c2c(Br)[nH]c3ccccc23)CC1 [GEN1-139, 1-(4-(2-bromo-1H-indol-3-yl)piperidin-1-yl)-2-(4-(trifluoromethyl)phenyl)ethenone] | 18.43 | 
11 | O=C1Nc2ccccc2C2(CCN(C(=O)Cc3ccc(C(F)(F)F)cc3)CC2)O1 [GEN1-178, 1′-(2-(4-(trifluoromethyl)phenyl)acetyl)spiro[benzo[d][1,3]oxazine-4,4′-piperidine]-2(1H)-one] | 8.67 | 
12 | O=C1Nc2ccccc2C2(CCN(C(=O)Cc3ccc(C(F)(F)F)cc3)CC2)N1 [GEN1-179, 1-(2-(4-(trifluoromethyl)phenyl)acetyl)-1′H-spiro[piperidin-4,4′-quinazoline]-2′(3′H)-one] | 10.11 | 
13 | O=C(Cc1ccc(C(F)(F)F)cc1)N1CCC(N2C(=O)NCc3cccc(C(F)(F)F)c32)CC1 [GEN1-265, 8-(trifluoromethyl)-1-(1-(2-(4-(trifluoromethyl)phenyl)acetyl)piperidin-4-yl)-3,4-dihydroquinazolin-2(1H)-one] | 16.47 | 
14 | O=C(C[C@H]1CC[C@H](C(F)(F)F)CC1)N1CCC(n2c(=O)[nH]c3cccc(C(F)(F)F)c32)CC1 [GEN1-268, 7-(trifluoromethyl)-1-(1-(2-((1R,4R)-4-(trifluoromethyl)cyclohexyl)acetyl)piperidin-4-yl)-1H-benzo[d]imidazol-2(3H)-one] | 58.21 | 
15 | COc1cccc(CC(=O)N2CCC(n3c(=O)[nH]c4ccccc43)CC2)c1 [GEN1-270] | 21.10 | 
16 | COc1ccccc1CC(=O)N1CCC(n2c(=O)[nH]c3ccccc32)CC1 [GEN1-271] | 9.33 | 
17 | O=C(Cc1ccc2c(c1)CCCN2)N1CCC(n2c(=O)[nH]c3cccc(C(F)(F)F)c32)CC1 [GEN1-276, 1-(1-(2-(1,2,3,4-tetrahydroquinolin-6-yl)acetyl)piperidin-4-yl)-7-(trifluoromethyl)-1,3-dihydro-2H-benzo[d]imidazol-2-one] | 55.48 | 
18 | O=C(Cc1ccc(C(F)(F)F)cc1)N1CCC(n2c(=O)[nH]c3ccc(-c4ccccc4)c(C(F)(F)F)c32)CC1 [GEN1-277, 6-phenyl-7-(trifluoromethyl)-1-(1-(2-(4-(trifluoromethyl)phenyl)acetyl)piperidin-4-yl)-1H-benzo[d]imidazol-2(3H)-one] | 6.52 | 
19 | COc1cc(CC(=O)N2CCC(n3c(=O)[nH]c4cccc(C(F)(F)F)c43)CC2)ccc1Cl [GEN1-278, 1-(1-(2-(4-chloro-3-methoxyphenyl)acetyl)piperidin-4-yl)-7-(trifluoromethyl)-1,3-dihydro-2H-benzo[d]imidazol-2-one] | 73.74 | 
20 | O=C(Cc1ccc(Cl)c(OC(F)(F)F)c1)N1CCC(n2c(=O)[nH]c3cccc(C(F)(F)F)c32)CC1 [GEN1-280, 1-(1-(2-(4-chloro-3-(trifluoromethoxy)phenyl)acetyl)piperidin-4-yl)-7-(trifluoromethyl)-1,3-dihydro-2H-benzo[d]imidazol-2-one] | 20.53 | 
21 | O=C(Cc1ccc(C(F)(F)F)cc1)N1CCC(n2c(=O)[nH]c3cccc(Cl)c32)CC1 [GEN1-281] | 50.87 | 
22 | Cc1cccc2[nH]c(=O)n(C3CCN(C(=O)Cc4ccc(C(F)(F)F)cc4)CC3)c12 [GEN1-282] | 49.93 | 
23 | CCOc1cccc(CC(=O)N2CCC(n3c(=O)[nH]c4ccccc43)CC2)c1 [GEN1-287] | 8.72 | 
24 | O=C(Cc1ccc(C(F)(F)F)cc1)N1CCC(n2c(=O)[nH]c3cccc(F)c32)CC1 [GEN1-289] | 6.86 | 
25 | O=C(Cc1ccc(C(F)(F)F)cc1)N1CCC(n2c(=O)[nH]c3cccc(Br)c32)CC1 [GEN1-290] | 57.51 | 
26 | O=C(Cc1ccc2ncccc2c1)N1CCC(n2c(=O)[nH]c3cccc(Cl)c32)CC1 [GEN1-291] | 70.98 | 
27 | Cc1cccc2[nH]c(=O)n(C3CCN(C(=O)Cc4ccc5ncccc5c4)CC3)c12 [GEN1-292, 7-methyl-1-(1-(2-(quinolin-6-yl)acetyl)piperidin-4-yl)-1,3-dihydro-2H-benzo[d]imidazol-2-one] | 59.63 | 
28 | O=C(Cc1ccc2ncccc2c1)N1CCC(n2c(=O)[nH]c3cc(Cl)ccc32)CC1 [GEN1-294] | 1.85 | 
